Data: PubChem BioAssay AID250 (DTP/NCI, 2004)
Values joined by “and” are separate entries in the source; they are usually repeats but may differ in a detail not shown here. Equal entries are not always repeated. Inconclusive results and toxic doses are left out.

System: BDF1 mice, L1210 leukemia sc, survival T/C
Assay: NCI In Vivo Anticancer Drug Screen. Data for tumor model L1210 Leukemia (subcutaneous) in B6D2F1 (BDF1) mice
Conditions: higher = longer survival
How it was run: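 Antitumor activity is assessed in mice with transplanted tumors by comparing the treated group (T) with the vehicle control group (C).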

SMILES: CC[C@](O)(C(=O)O)c1cc2n(c(=O)c1CO)Cc1cc3ccccc3nc1-2
- T/C (endpoint: median survival time, dose: 0.5 mg/kg/injection, schedule: Q01DX009 (ip), vehicle: saline): 104 % of control
- T/C (endpoint: median survival time, dose: 0.5 mg/kg/injection, schedule: Q01DX009 (sc), vehicle: saline): 104 % of control
- T/C (endpoint: median survival time, dose: 1.0 mg/kg/injection, schedule: Q01DX009 (ip), vehicle: saline): 102 % of control
- T/C (endpoint: median survival time, dose: 1.0 mg/kg/injection, schedule: Q01DX009 (sc), vehicle: saline): 104 % of control
- T/C (endpoint: median survival time, dose: 2.0 mg/kg/injection, schedule: Q01DX009 (ip), vehicle: saline): 116 % of control
- T/C (endpoint: median survival time, dose: 2.0 mg/kg/injection, schedule: Q01DX009 (sc), vehicle: saline): 110 % of control
- T/C (endpoint: median survival time, dose: 6.25 mg/kg/injection, schedule: Q02DX005 (sc), vehicle: saline): 115 % of control and 120 % of control
- T/C (endpoint: median survival time, dose: 6.25 mg/kg/injection, schedule: Q04DX003 (sc), vehicle: saline): 115 % of control and 116 % of control
- T/C (endpoint: median survival time, dose: 8.4 mg/kg/injection, schedule: Q04DX003 (sc), vehicle: saline): 122 % of control and 123 % of control
- T/C (endpoint: median survival time, dose: 12.5 mg/kg/injection, schedule: Q02DX005 (sc), vehicle: saline): 156 % of control
- T/C (endpoint: median survival time, dose: 14.0 mg/kg/injection, schedule: Q07DX003 (sc), vehicle: saline): 115 % of control and 122 % of control
- T/C (endpoint: median survival time, dose: 18.0 mg/kg/injection, schedule: Q04DX003 (sc), vehicle: saline): 118 % of control and 120 % of control
- T/C (endpoint: median survival time, dose: 18.0 mg/kg/injection, schedule: Q07DX003 (sc), vehicle: saline): 118 % of control and 120 % of control
- T/C (endpoint: median survival time, dose: 20.0 mg/kg/injection, schedule: Q07DX003 (sc), vehicle: saline): 120 % of control and 121 % of control
- T/C (endpoint: median survival time, dose: 23.0 mg/kg/injection, schedule: Q07DX003 (sc), vehicle: saline): 120 % of control and 122 % of control
- T/C (endpoint: median survival time, dose: 25.0 mg/kg/injection, schedule: Q02DX005 (sc), vehicle: saline): 165 % of control and 170 % of control
- T/C (endpoint: median survival time, dose: 25.0 mg/kg/injection, schedule: Q07DX003 (sc), vehicle: saline): 150 % of control and 151 % of control
- T/C (endpoint: median survival time, dose: 30.0 mg/kg/injection, schedule: Q04DX003 (sc), vehicle: saline): 120 % of control
- T/C (endpoint: median survival time, dose: 30.0 mg/kg/injection, schedule: Q07DX003 (sc), vehicle: saline): 120 % of control and 121 % of control
- T/C (endpoint: median survival time, dose: 32.0 mg/kg/injection, schedule: Q07DX003 (sc), vehicle: saline): 155 % of control and 158 % of control
- T/C (endpoint: median survival time, dose: 39.0 mg/kg/injection, schedule: Q07DX003 (sc), vehicle: saline): 120 % of control and 122 % of control
- T/C (endpoint: median survival time, dose: 39.0 mg/kg/injection, schedule: Q09DX003 (sc), vehicle: saline): 116 % of control and 117 % of control
- T/C (endpoint: median survival time, dose: 40.0 mg/kg/injection, schedule: Q04DX003 (sc), vehicle: saline): 160 % of control and 181 % of control
- T/C (endpoint: median survival time, dose: 50.0 mg/kg/injection, schedule: Q01DX001 (sc), vehicle: saline): 118 % of control and 120 % of control
- T/C (endpoint: median survival time, dose: 62.0 mg/kg/injection, schedule: Q07DX003 (sc), vehicle: saline): 175 % of control and 176 % of control
- T/C (endpoint: median survival time, dose: 65.0 mg/kg/injection, schedule: Q07DX003 (sc), vehicle: saline): 121 % of control and 122 % of control
- T/C (endpoint: median survival time, dose: 65.0 mg/kg/injection, schedule: Q09DX003 (sc), vehicle: saline): 122 % of control
- T/C (endpoint: median survival time, dose: 78.0 mg/kg/injection, schedule: Q07DX003 (sc), vehicle: saline): 180 % of control and 181 % of control
- T/C (endpoint: median survival time, dose: 80.0 mg/kg/injection, schedule: Q04DX003 (sc), vehicle: saline): 115 % of control and 118 % of control
- T/C (endpoint: median survival time, dose: 80.0 mg/kg/injection, schedule: Q07DX003 (sc), vehicle: saline): 120 % of control and 123 % of control
- T/C (endpoint: median survival time, dose: 83.3 mg/kg/injection, schedule: Q01DX001 (sc), vehicle: saline): 120 % of control and 121 % of control
- T/C (endpoint: median survival time, dose: 98.0 mg/kg/injection, schedule: Q07DX003 (sc), vehicle: saline): 118 % of control and 120 % of control
- T/C (endpoint: median survival time, dose: 108.0 mg/kg/injection, schedule: Q07DX003 (sc), vehicle: saline): 120 % of control and 122 % of control
- T/C (endpoint: median survival time, dose: 108.0 mg/kg/injection, schedule: Q09DX003 (sc), vehicle: saline): 122 % of control
- T/C (endpoint: median survival time, dose: 122.0 mg/kg/injection, schedule: Q07DX003 (sc), vehicle: saline): 118 % of control and 120 % of control
- T/C (endpoint: median survival time, dose: 148.0 mg/kg/injection, schedule: Q01DX001 (sc), vehicle: saline): 110 % of control
- T/C (endpoint: median survival time, dose: 160.0 mg/kg/injection, schedule: Q04DX003 (sc), vehicle: saline): 90 % of control and 93 % of control
- T/C (endpoint: median survival time, dose: 160.0 mg/kg/injection, schedule: Q07DX003 (sc), vehicle: saline): 110 % of control and 122 % of control
- T/C (endpoint: median survival time, dose: 180.0 mg/kg/injection, schedule: Q09DX003 (sc), vehicle: saline): 116 % of control and 118 % of control
- T/C (endpoint: median survival time, dose: 191.0 mg/kg/injection, schedule: Q07DX003 (sc), vehicle: saline): 150 % of control
- T/C (endpoint: median survival time, dose: 246.0 mg/kg/injection, schedule: Q01DX001 (sc), vehicle: saline): 110 % of control
- T/C (endpoint: median survival time, dose: 300.0 mg/kg/injection, schedule: Q09DX003 (sc), vehicle: saline): 100 % of control and 101 % of control
- T/C (endpoint: median survival time, dose: 320.0 mg/kg/injection, schedule: Q07DX003 (sc), vehicle: saline): 90 % of control
- T/C (endpoint: median survival time, dose: 468.0 mg/kg/injection, schedule: Q07DX003 (sc), vehicle: saline): 120 % of control and 121 % of control
- T/C (endpoint: median survival time, dose: 731.0 mg/kg/injection, schedule: Q07DX003 (sc), vehicle: saline): 90 % of control and 93 % of control
- T/C (endpoint: median survival time, dose: 800.0 mg/kg/injection, schedule: Q07DX003 (sc), vehicle: saline): 88 % of control

SMILES: O[C@H](CN1CC1)[C@@H](O)CN1CC1
- T/C (endpoint: median survival time, dose: 0.14 mg/kg/injection, schedule: Q01DX Z (sc), vehicle: saline): 100 % of control
- T/C (endpoint: median survival time, dose: 0.22 mg/kg/injection, schedule: Q01DX Z (sc), vehicle: saline): 111 % of control
- T/C (endpoint: median survival time, dose: 0.23 mg/kg/injection, schedule: Q01DX Z (sc), vehicle: saline): 111 % of control
- T/C (endpoint: median survival time, dose: 0.6 mg/kg/injection, schedule: Q01DX Z (sc), vehicle: saline): 177 % of control
- T/C (endpoint: median survival time, dose: 0.65 mg/kg/injection, schedule: Q01DX Z (sc), vehicle: saline): 183 % of control
- T/C (endpoint: median survival time, dose: 1.0 mg/kg/injection, schedule: Q01DX Z (sc), vehicle: saline): 172 % of control
- T/C (endpoint: median survival time, dose: 1.08 mg/kg/injection, schedule: Q01DX Z (sc), vehicle: saline): 155 % of control
- T/C (endpoint: median survival time, dose: 2.8 mg/kg/injection, schedule: Q01DX Z (sc), vehicle: saline): 122 % of control

SMILES: O=C(Nc1ccc(C2=NCCN2)cc1)c1ccc(C(=O)Nc2ccc(C3=NCCN3)cc2)c(NC(=O)c2ccc(C(=O)Nc3cc(C(=O)Nc4ccc(C5=NCCN5)cc4)ccc3C(=O)Nc3ccc(C4=NCCN4)cc3)cc2)c1
- T/C (endpoint: median survival time, dose: 23.0 mg/kg/injection, schedule: Q01DX Z (sc), vehicle: water): 110 % of control
- T/C (endpoint: median survival time, dose: 39.0 mg/kg/injection, schedule: Q01DX Z (sc), vehicle: water): 100 % of control
- T/C (endpoint: median survival time, dose: 65.0 mg/kg/injection, schedule: Q01DX Z (sc), vehicle: water): 100 % of control
- T/C (endpoint: median survival time, dose: 108.0 mg/kg/injection, schedule: Q01DX Z (sc), vehicle: water): 100 % of control
- T/C (endpoint: median survival time, dose: 180.0 mg/kg/injection, schedule: Q01DX Z (sc), vehicle: water): 100 % of control
- T/C (endpoint: median survival time, dose: 300.0 mg/kg/injection, schedule: Q01DX Z (sc), vehicle: water): 100 % of control

SMILES: Cn1cc(NC(=O)c2cc(NC(=O)CN=C(N)N)cn2C)cc1C(=O)NCCC(=N)N
- T/C (endpoint: median survival time, dose: 6.0 mg/kg/injection, schedule: Q01DX Z (sc), vehicle: methylcellulose (MC)): 100 % of control
- T/C (endpoint: median survival time, dose: 12.0 mg/kg/injection, schedule: Q01DX Z (sc), vehicle: methylcellulose (MC)): 100 % of control
- T/C (endpoint: median survival time, dose: 24.0 mg/kg/injection, schedule: Q01DX Z (sc), vehicle: methylcellulose (MC)): 100 % of control

SMILES: Cc1cccc2c(Nc3ccc(NS(C)(=O)=O)cc3)c3ccc([N+](=O)[O-])cc3nc12
- T/C (endpoint: mean survival time, dose: 10.0 mg/kg/injection, schedule: Q01DX009 (ip), vehicle: saline): 158 % of control

SMILES: CN(C)c1ccc(/C=C/c2ccnc3ccccc23)cc1
- T/C (endpoint: median survival time, dose: 0.65 mg/kg/injection, schedule: Q01DX Z (sc), vehicle: water): 100 % of control
- T/C (endpoint: median survival time, dose: 1.08 mg/kg/injection, schedule: Q01DX Z (sc), vehicle: water): 100 % of control
- T/C (endpoint: median survival time, dose: 1.8 mg/kg/injection, schedule: Q01DX Z (sc), vehicle: water): 104 % of control
- T/C (endpoint: median survival time, dose: 3.0 mg/kg/injection, schedule: Q01DX Z (sc), vehicle: water): 100 % of control
- T/C (endpoint: median survival time, dose: 5.0 mg/kg/injection, schedule: Q01DX Z (sc), vehicle: water): 100 % of control
- T/C (endpoint: median survival time, dose: 6.0 mg/kg/injection, schedule: Q01DX Z (sc), vehicle: water): 100 % of control
- T/C (endpoint: median survival time, dose: 8.4 mg/kg/injection, schedule: Q01DX Z (sc), vehicle: water): 100 % of control
- T/C (endpoint: median survival time, dose: 10.0 mg/kg/injection, schedule: Q01DX Z (sc), vehicle: water): 100 % of control
- T/C (endpoint: median survival time, dose: 14.0 mg/kg/injection, schedule: Q01DX Z (sc), vehicle: water): 100 % of control
- T/C (endpoint: median survival time, dose: 17.0 mg/kg/injection, schedule: Q01DX Z (sc), vehicle: water): 100 % of control
- T/C (endpoint: median survival time, dose: 28.0 mg/kg/injection, schedule: Q01DX Z (sc), vehicle: water): 100 % of control
- T/C (endpoint: median survival time, dose: 47.0 mg/kg/injection, schedule: Q01DX Z (sc), vehicle: water): 100 % of control
- T/C (endpoint: median survival time, dose: 78.0 mg/kg/injection, schedule: Q01DX Z (sc), vehicle: water): 110 % of control
- T/C (endpoint: median survival time, dose: 130.0 mg/kg/injection, schedule: Q01DX Z (sc), vehicle: water): 100 % of control
